From PubChem BioAssay (NCI)
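Cells were grown in 96-well plates and exposed to each compound for 48 hours at five concentrations; endpoints were interpolated linearly between bracketing concentrations, or set to the highest concentration if not reached. GI50 marks 50% less growth. TGI marks complete inhibition of growth.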 *1 amine or outer side, *2 acyl side, *3 side chain or, on linkers, in order; H or OH if unused. Where a SMILES comes first, the peptide text is derived from it. Bridges are numbered along the chain shown (N, C = ends). [ ]: non-standard residue; d: D form. The star is where a group is joined. X19 = O=C([C@H](N[*:1])c1ccc(O[C@H]2O[C@@H](CO)[C@@H](O)[C@@H](O)[C@H]2O[C@@H]2O[C@H](CO)[C@H](O)[C@H](O)[C@@H]2O)cc1)[*:2]; X18 = NC(=O)[C@@H](O[*:3])[C@H](N[*:1])C(=O)[*:2]; X20 = O=C([C@H](N[*:1])c1ccc(O)c(Cl)c1)[*:2]; d(aThr) = C[C@@H](O)[C@@H](N)C(=O)O; dHpg = N[C@@H](C(=O)O)c1ccc(O)cc1; X17 = CC(C)C/C=C/C=C/C(=O)*; dOrn = NCCC[C@@H](N)C(=O)O

How the values were obtained:
Assay in all cases: DTP human tumour cell line panel, 48 h
HCC-2998 colon = tested on: HCC-2998 colon
HOP-92 NSCLC = tested on: HOP-92 NSCLC
SF-268 CNS = tested on: SF-268 CNS
K-562 leukemia = tested on: K-562 leukemia
NCI/ADR-RES ovarian = tested on: NCI/ADR-RES ovarian
KM12 colon = tested on: KM12 colon
SF-539 CNS = tested on: SF-539 CNS
ACHN renal = tested on: ACHN renal
NCI-H23 lung = tested on: NCI-H23 lung
UO-31 renal = tested on: UO-31 renal

Structure (SMILES)	GI50 (HCC-2998 colon) [µM]	TGI (HCC-2998 colon) [µM]	GI50 (HOP-92 NSCLC) [µM]	TGI (HOP-92 NSCLC) [µM]	GI50 (SF-268 CNS) [µM]	TGI (SF-268 CNS) [µM]	GI50 (K-562 leukemia) [µM]	TGI (K-562 leukemia) [µM]	GI50 (NCI/ADR-RES ovarian) [µM]	TGI (NCI/ADR-RES ovarian) [µM]	GI50 (KM12 colon) [µM]	TGI (KM12 colon) [µM]	GI50 (SF-539 CNS) [µM]	TGI (SF-539 CNS) [µM]	GI50 (ACHN renal) [µM]	TGI (ACHN renal) [µM]	GI50 (NCI-H23 lung) [µM]	TGI (NCI-H23 lung) [µM]	GI50 (UO-31 renal) [µM]	TGI (UO-31 renal) [µM]
O=C(Nc1ccc(Cl)cc1)c1cc2cc(F)ccc2cc1O	3.13	> 100	0.288	0.809	2.46	> 100	0.491	> 100	2.5	8.05	2.74	> 100	1.26	14.3	1.67	7.07	0.929	7.33	1.08	> 100
CC1(C)CCC2(C(=O)O)CC[C@]3(C)C(=CCC4C5(C)CC[C@H](OC6OC(C(=O)O)C(O)C(OC7OC(CO)C(O)C(O)C7O)C6OC6OC(CO)C(O)C(O)C6O)C(C)(C)C5CCC43C)C2C1 (some centres undefined)			> 100	> 100	> 100	> 100	81.1	> 100	> 100	> 100	> 100	> 100	> 100	> 100			20.2	42.7	63.5	> 100
Cc1cccc2c1NC(=O)[C@@]21[C@H](C(=O)c2ccccc2)[C@]2(C(=O)Nc3ccccc32)[C@H]2CCCN21	49.5	> 100	24.7	59.1	30.8	> 100	33.1	> 100	20.4	71.5	58.9	> 100	18.6	48.9	19.6	73	47	> 100	17.6	> 100
NC(=O)c1cc(Cl)ccc1NC(=O)c1ccccc1-c1ccccc1	2.99	31.6	3.96	61.5	5.38	> 100	0.416	> 100	0.459	26.4	0.872	46.3	0.319	1.89	0.799	87.6	2.01	> 100	1.97	> 100
O=C1CCC2=C3C4CCCCC4C(=O)C4CCCC(OC2C1)C34 (centres undefined)	3.41	15.7	2.43	8.95	0.471	> 21.8	0.493		0.36	4.06	1.75	5.46	2.44	> 100	0.382		0.417	2.73	0.487	3.88
CC1(C)N=C(/C=N/O)C(C)(C)N1O		> 100		> 100		> 100		> 100		> 100		> 100		> 100		> 100		> 100		> 100
CCC(c1ccc(OC)cc1)C(CC)c1ccc(O)c(CN2CCCC2)c1 (centres undefined)	2.29	4.38	1.57	3.58	5.6	21.5	1.61	5.59	5.92	22.3	3.72	15.3	4.16	15.6	4.57	18.5	3.66	15.6	3.91	17
CNC(=O)c1cncc(/C=C/c2c(C)cccc2C)c1	> 25	> 25	3.34	22.9	> 25	> 25	> 22.3	> 25	> 25	> 25	> 25	> 25	14.5	> 25	16.3	> 25	> 25	> 25	9.29	> 25
CC1=C(C(=O)NCC(C)O)CC(C(=O)NCC(C)O)=C(C)N1 (centres undefined)		> 100		> 100		> 100		> 100		> 100		> 100		> 100		> 100		> 100		> 100
CC(C)(C)N1CC(OC(N)=O)C1	> 100	> 100	> 100	> 100	> 100	> 100	> 100	> 100	> 100	> 100	> 100	> 100	> 100	> 100	> 100	> 100	> 100	> 100	> 100	> 100
C[C@@H](Oc1cc(NS(=O)(=O)N2CCC2)nc(SCc2cccc(F)c2F)n1)[C@@H](O)CO	> 100	> 100	> 100	> 100	> 100	> 100	> 100	> 100	> 100	> 100	> 100	> 100	> 100	> 100	> 100	> 100	> 100	> 100	> 100	> 100
CC(C)C/C=C/C=C/C(=O)N[C@@H](CC(N)=O)C(=O)N[C@@H]1C(=O)N[C@H](c2ccc(O)cc2)C(=O)N[C@H](CCCN)C(=O)N[C@H]([C@@H](C)O)C(=O)N[C@H](c2ccc(O)cc2)C(=O)N[C@H](c2ccc(O)cc2)C(=O)N[C@H]([C@H](C)O)C(=O)N[C@H](Cc2ccccc2)C(=O)N[C@H](CCCN)C(=O)N[C@H](c2ccc(O[C@H]3O[C@@H](CO)[C@@H](O)[C@@H](O)[C@H]3O[C@@H]3O[C@H](CO)[C@H](O)[C@H](O)[C@@H]3O)cc2)C(=O)N[C@H]([C@H](C)O)C(=O)N[C@H](c2ccc(O)cc2)C(=O)NCC(=O)N[C@H](CC(C)C)C(=O)N[C@H](C)C(=O)N[C@H](c2ccc(O)c(Cl)c2)C(=O)O[C@@H]1C(N)=O (X17-N[X18][dHpg][dOrn][d(aThr)][dHpg][dHpg][dT][dF][dOrn][X19][dT][dHpg]G[dL][dA][X20]; ester 2-C)	57.2	> 100	80	> 100	34.2	> 100	36.3	> 100	39.5	> 100	27.8	> 100	22.8	60.9	68.7	> 100	25.8	88.9	> 100	> 100
